Source: patent publication US11299487B2, “Compounds and compositions as modulators of TLR signaling” (Neuropore Therapies, Inc., priority 2019, dated 2022)

What was measured:
human TLR2 [1] = molecular target: T1, human TLR2 (Homo sapiens, UniProt O60603); experiment: HEK-Blue hTLR2 antagonism assay (SEAP reporter) with agonist Pam3CSK4 (TLR1/2 agonist); format: cell-based; details: Table B; HEK-Blue hTLR2 cells, ~3×EC50 Pam3CSK4, 18 h, SEAP OD 655 nm, 8-point dilutions
T1 construct: host or cells: HEK-Blue hTLR2 (HEK-293)
T1 sequence (O60603 21-784): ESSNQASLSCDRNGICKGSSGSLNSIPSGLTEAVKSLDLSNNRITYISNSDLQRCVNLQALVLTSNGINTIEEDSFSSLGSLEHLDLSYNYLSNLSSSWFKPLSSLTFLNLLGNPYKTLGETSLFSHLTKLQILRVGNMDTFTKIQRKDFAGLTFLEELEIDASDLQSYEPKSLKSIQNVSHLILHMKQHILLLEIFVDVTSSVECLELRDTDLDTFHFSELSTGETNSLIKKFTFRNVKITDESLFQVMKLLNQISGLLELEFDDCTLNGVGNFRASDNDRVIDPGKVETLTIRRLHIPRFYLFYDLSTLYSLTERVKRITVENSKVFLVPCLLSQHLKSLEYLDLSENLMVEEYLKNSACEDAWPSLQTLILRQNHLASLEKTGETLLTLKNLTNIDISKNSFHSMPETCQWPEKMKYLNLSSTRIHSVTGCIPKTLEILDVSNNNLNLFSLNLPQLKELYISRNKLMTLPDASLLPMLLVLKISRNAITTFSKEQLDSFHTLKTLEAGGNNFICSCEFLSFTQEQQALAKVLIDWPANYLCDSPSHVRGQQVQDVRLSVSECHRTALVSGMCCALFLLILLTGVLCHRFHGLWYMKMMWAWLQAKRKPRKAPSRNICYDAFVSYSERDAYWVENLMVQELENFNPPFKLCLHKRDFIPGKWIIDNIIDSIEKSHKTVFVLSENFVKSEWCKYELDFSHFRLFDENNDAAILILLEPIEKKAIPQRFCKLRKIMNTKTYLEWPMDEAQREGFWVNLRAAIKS
Protocol: (§1) Synthetic diacylated lipoprotein (Pam2CSK4, TLR2/6 agonist) and synthetic triacylated lipoprotein (Pam3CSK4, TLR1/2 agonist) were obtained from InvivoGen and were dissolved in endotoxin-free water to a concentration 1 mg/mL, vortexed until complete solubilization, and stored in aliquots at −20° C. Prior to addition to cells, an aliquot of the dissolved ligand was vortexed shortly and then was diluted in medium to 25 ng/mL Pam2CSK4 or 1000 ng/mL Pam3CSK4.
(§2) Test compounds were solubilized fresh to 10-20 mM stocks in DMSO and sonicated for 5-10 minutes in a water bath sonicator. Serial dilutions were prepared in DMSO, and then diluted in medium. The final concentration of DMSO used in the assay was 1%.
(§3) HEK-Blue hTLR2 reporter cells (InvivoGen) are HEK-293 cells stably expressing both the human TLR2 gene and a secreted embryonic alkaline phosphatase (SEAP) reporter construct downstream of NFκB promotor sites. HEK-Blue hTLR2 reporters were cultured according to manufacturer's protocol using Dulbecco's Modified Eagle Medium (DMEM; Gibco) containing 1× GlutaMax (Gibco), 10% heat-inactivated Fetal Bovine Serum (Gibco), Pen-Strep (50 U/mL penicillin, 50 μg/mL streptomycin, Gibco), 100 μg/mL Normocin (InvivoGen), and the selective antibiotic, 1×HEK-Blue Selection (InvivoGen). Quanti-Blue reagent (InvivoGen) for detection and quantification of secreted alkaline phosphatase was dissolved in 100 mL of endotoxin-free water, warmed to 37° C. for 30 minutes and then filtered using a 0.2 μm membrane.
(§4) On day 1, 50 μL of each test compound dilution in duplicates or a vehicle control was added to each well of a 96-well plate followed by addition of 150 μL of HEK-Blue hTLR2 cell suspension (1×10^5 cells/well) and incubated at 37° C./5% CO2 for 2 h. Next, 50 μL of an approximate 3×EC50 concentration of each agonist (Pam2CSK4 or Pam3CSK4) was added to the wells containing test compounds or the vehicle control. The plates were then incubated at 37° C./5% CO2 for 18 h. For each assay run, non-treated HEK-Blue hTLR2 cells were treated with serial dilutions of agonists to determine EC50 values for the respective run.
(§5) On day 2, secreted alkaline phosphatase (SEAP) activity was detected in cell culture supernatants. In brief, 20 μL was collected from each well and transferred to a 96-well plate. Next, 200 μL of Quanti-Blue detection reagent was added to each well. Plates were incubated at room temperature for 15 min. and SEAP activity was assessed by spectrophotometer OD reading at 655 nm. […] IC50 values were calculated based on 8-point dilutions for each compound.

human TLR2 [2] = molecular target: T1, human TLR2; experiment: HEK-Blue hTLR2 antagonism assay (SEAP reporter) with agonist Pam2CSK4 (TLR2/6 agonist); format: cell-based; details: Table B; HEK-Blue hTLR2 cells, ~3×EC50 Pam2CSK4, 18 h, SEAP OD 655 nm, 8-point dilutions
Protocol: as §1, §2, §3, §4, §5

| Compound | IC50 (human TLR2 [1]) [µM] | IC50 (human TLR2 [2]) [µM] |
| --- | --- | --- |
| O=Cc1cc(C(=O)Nc2ccc(N3CC4(CC4)CC3=O)cc2)cc(F)c1O [Compound B78, 3-fluoro-5-formyl-4-hydroxy-N-(4-(6-oxo-5-azaspiro[2.4]heptan-5-yl)phenyl)benzamide] | 18.5 | 34.4 |
| O=Cc1cc(C(=O)Nc2ccc(N3CCC4(CC4)C3)cc2)cc(F)c1O [Compound B79, N-(4-(5-azaspiro[2.4]heptan-5-yl)phenyl)-3-fluoro-5-formyl-4-hydroxybenzamide] | 1.4 | 4.1 |
| O=Cc1cc(C#Cc2ccc(C(=O)NC3CC3)cc2)cc(F)c1O [Compound B80, N-cyclopropyl-4-((3-fluoro-5-formyl-4-hydroxyphenyl)ethynyl)benzamide] | 35.9 | 15.5 |
| O=Cc1cc(C(=O)Nc2ccc(N3Cc4ccccc4C3)cc2)cc(F)c1O [Compound B81, 3-fluoro-5-formyl-4-hydroxy-N-(4-(isoindolin-2-yl)phenyl)benzamide] | 0.5 | 1 |
| O=Cc1cc(C(=O)Nc2ccc(N3CCc4ccccc4C3)cc2)cc(F)c1O [Compound B82, N-(4-(3,4-dihydroisoquinolin-2(1H)-yl)phenyl)-3-fluoro-5-formyl-4-hydroxybenzamide] | 0.7 | 1.2 |
| O=Cc1cc(C(=O)Nc2ccc(N3CCN(c4ccccc4)CC3)cc2)cc(F)c1O [Compound B83, 3-fluoro-5-formyl-4-hydroxy-N-(4-(4-phenylpiperazin-1-yl)phenyl)benzamide] | 0.3 | 1 |
| O=Cc1cc(C(=O)Nc2ccc(N3CCC(N4CCCC4)CC3)cc2)cc(F)c1O [Compound B84, 3-fluoro-5-formyl-4-hydroxy-N-(4-(4-(pyrrolidin-1-yl)piperidin-1-yl)phenyl)benzamide] | 14.3 | 33.9 |
| O=Cc1cc(C(=O)Nc2ccc(N3Cc4ccccc4C3)nc2)cc(F)c1O [Compound B86, 3-fluoro-5-formyl-4-hydroxy-N-(6-(isoindolin-2-yl)pyridin-3-yl)benzamide] | 1.8 | 4.3 |
| O=Cc1cc(C(=O)Nc2ccc(N3CCOc4ccccc43)cc2)cc(F)c1O [Compound B90, N-(4-(2,3-dihydro-4H-benzo[b][1,4]oxazin-4-yl)phenyl)-3-fluoro-5-formyl-4-hydroxybenzamide] | 1.9 | 2.9 |
| O=Cc1cc(C(=O)Nc2ccc(N3CCCC3)c(C(F)(F)F)c2)cc(F)c1O [Compound B91, 3-fluoro-5-formyl-4-hydroxy-N-(4-(pyrrolidin-1-yl)-3-(trifluoromethyl)phenyl) benzamide] | 1.6 | 2.2 |
| CN(CC(C)(C)C)c1ccc(NC(=O)c2cc(F)c(O)c(C=O)c2)cc1 [Compound B94, 3-fluoro-5-formyl-4-hydroxy-N-(4-(methyl(neopentyl)amino)phenyl)benzamide] | 0.9 | 1 |
| O=Cc1cc(C(=O)Nc2ccc(N3C4CCC3CC4)cc2)cc(F)c1O [Compound B95, N-(4-(7-azabicyclo[2.2.1]heptan-7-yl)phenyl)-3-fluoro-5-formyl-4-hydroxybenzamide] | 2.8 | 3.7 |
| O=Cc1cc(C(=O)Nc2ccc(N3C4CCCC3CC4)cc2)cc(F)c1O [Compound B96, N-(4-(8-azabicyclo[3.2.1]octan-8-yl)phenyl)-3-fluoro-5-formyl-4-hydroxybenzamide] | 1.1 | 1.4 |
| CC1(C)CN(c2ccc(NC(=O)c3cc(F)c(O)c(C=O)c3)cn2)c2ccc(F)cc21 [Compound B99, 3-fluoro-N-(6-(5-fluoro-3,3-dimethylindolin-1-yl)pyridin-3-yl)-5-formyl-4-hydroxybenzamide] | 0.5 | 0.6 |
| O=Cc1cc(C(=O)Nc2ccc(N3CCN(c4ccccc4)CC3)nc2)cc(F)c1O [Compound B102, 3-fluoro-5-formyl-4-hydroxy-N-(6-(4-phenylpiperazin-1-yl)pyridin-3-yl)benzamide] | 1 | 2 |
